Tested on: mouse counterpart genes
Assay: Mouse GeneChip (MG-U74A to MG-U74C) analysis of lung and trachea of the OVA antigen-exposed bronchial hypersensitivity model, S-Sal group versus S-OVA group
Format: in vivo
Settings: S-Sal group vs S-OVA group

ovalbumin [OVA antigen, ovalbumin antigen used for sensitization and inhalation to induce bronchial hypersensitivity in mice]
Fold Change, interferon gamma inducible protein 30 (mouse probe 97444_at) (3rd, chip A, P/A call A): 1.8 | Fold Change, matrix metalloproteinase 7 (mouse probe 92917_at) (3rd, chip A, P/A call A): 1.6 | Fold Change, matrix metalloproteinase 7 (mouse probe 162318_r_at) (3rd, chip A, P/A call A): 1.3 | Fold Change, met proto-oncogene (mouse probe 100309_at) (3rd, chip A, P/A call A): 1.9 | Fold Change, phosphotidylinositol transfer protein, beta (mouse probe 102697_at) (3rd, chip A, P/A call A): 0.5 | Fold Change, A kinase anchor protein 2 (mouse probe 101435_at) (3rd, chip A, P/A call P): 1 | Fold Change, DNA segment. Chr 16. ERATO Doi 269, expressed (mouse probe 97821_at) (3rd, chip A, P/A call P): 1 | Fold Change, DNA segment. Chr 16. ERATO Doi 269, expressed (mouse probe 97823_g_at) (3rd, chip A, P/A call P): 1.1 | Fold Change, a disintegrin and metalloprotease domain 8 (mouse probe 103024_at) (3rd, chip A, P/A call P): 4.6 | Fold Change, arachidonate 15-lipoxygenase (mouse probe 98758_at) (3rd, chip A, P/A call P): 8 | Fold Change, cholesterol 25-hydroxylase (mouse probe 104509_at) (3rd, chip A, P/A call P): 1.9 | Fold Change, claudin 4 (mouse probe 101410_at) (3rd, chip A, P/A call P): 1 | Fold Change, decay accelerating factor 1 (mouse probe 103617_at) (3rd, chip A, P/A call P): 1.3 | Fold Change, interferon-stimulated protein (20 kDa) (mouse probe 103432_at) (3rd, chip A, P/A call P): 1 | Fold Change, interleukin 1 receptor-like 1 (mouse probe 98500_at) (3rd, chip A, P/A call P): 2.4 | Fold Change, low density lipoprotein receptor-related protein associated protein 1 (mouse probe 100086_at) (3rd, chip A, P/A call P): 0.833 | Fold Change, low density lipoprotein receptor-related protein associated protein 1 (mouse probe 161988_f_at) (3rd, chip A, P/A call P): 1.1 | Fold Change, membrane-associated protein 17 (mouse probe 96935_at) (3rd, chip A, P/A call P): 1.1 | Fold Change, polycystic kidney disease 2 (mouse probe 100951_at) (3rd, chip A, P/A call P): 0.667 | Fold Change, histocompatibility 2, Q region locus 7 (mouse probe 98438_f_at) (3rd, chip A, P/A call P, counterpart of human probe 37420_i_at): 1.2 | Fold Change, histocompatibility 2, Q region locus 7 (mouse probe 98438_f_at) (3rd, chip A, P/A call P, counterpart of human probe 37421_f_at): 1.2 | Fold Change, A kinase (PRKA) anchor protein 10 (mouse probe 163162_at) (3rd, chip B, P/A call A): 0.526 | Fold Change, ESTs Putative Ortholog of ISG-54K gene (mouse probe 164273_at) (3rd, chip B, P/A call A): 1.5 | Fold Change, ESTs, Highly similar to AF116721 8 PRO0907 [H. sapiens] (mouse probe 114151_at) (3rd, chip B, P/A call A): 1.4 | Fold Change, decay accelerating factor 1 (mouse probe 164905_r_at) (3rd, chip B, P/A call A): 1.1 | Fold Change, interferon gamma inducible protein 30 (mouse probe 164423_at) (3rd, chip B, P/A call A): 4.1 | Fold Change, secreted end transmembrane 1 (mouse probe 115133_at) (3rd, chip B, P/A call A): 0.625 | Fold Change, viral hemorrhagic septicemia virus(VHSV) induced gene 1 (mouse probe 109385_at) (3rd, chip B, P/A call A): 0.286 | Fold Change, decay accelerating factor 1 (mouse probe 107626_at) (3rd, chip B, P/A call P): 1.9 | Fold Change, deleted in bladder cancer chromosome region candidate 1 (human) Putative Ortholog (mouse probe 166806_at) (3rd, chip C, P/A call P): 1 | Fold Change, interferon-induced protein with tetratricopeptide repeats 1 (mouse probe 168299_f_at) (3rd, chip C, P/A call P): 1.2 | Fold Change, 2′-5′ oligoadenylate synthetase 1A (mouse Probe ID 102717_at) (chip A, 1st): 1.6 | Fold Change, DnaJ (Hsp40) homolog, subfamily A, member 1 (mouse Probe ID 97261_at) (chip A, 1st): 0.476 | Fold Change, SAM domain and HD domain, 1 (mouse Probe ID 103080_at) (chip A, 1st): 1.3 | Fold Change, cadherin 6 (mouse Probe ID 101730_at) (chip A, 1st): 0.833 | Fold Change, cyclin D3 (mouse Probe ID 160545_at) (chip A, 1st): 0.625 | Fold Change, growth arrest and DNA-damage-inducible 45 gamma (mouse Probe ID 101979_at) (chip A, 1st): 2.3 | Fold Change, heparan sulfate (glucosamine) 3-)-sulfotransferase 1 (mouse Probe ID 102410_at) (chip A, 1st): 1.4 | Fold Change, hydroxysteroid (17-beta) dehydrogenase 2 (mouse Probe ID 101891_at) (chip A, 1st): 1.8 | Fold Change, intercellular adhesion molecule (mouse Probe ID 96752_at) (chip A, 1st): 1.3 | Fold Change, intercellular adhesion molecule (mouse Probe ID 1011414_at) (chip A, 1st): 1 | Fold Change, interferon-induced protein with tetratricopeptide repeats 1 (mouse Probe ID 100981_at) (chip A, 1st): 1.8 | Fold Change, interferon-stimulated protein (15 kDa) (mouse Probe ID 98822_at) (chip A, 1st): 4.3 | Fold Change, interleukin 13 receptor, alpha 2 (mouse Probe ID 95344_at) (chip A, 1st): 1.4 | Fold Change, nitric oxide synthase 2, inducible, macrophage (mouse Probe ID 104420_at) (chip A, 1st): 2.3 | Fold Change, osteoblast specific factor 2 (fasciclin I-like) (mouse Probe ID 92593_at) (chip A, 1st): 1.2 | Fold Change, proteosome (prosome, macropain) subunit, beta type 9 (mouse Probe ID 93085_at) (chip A, 1st): 2.1 | Fold Change, sialyltransferase 1 (beta-galactoside alpha-2,6-sialyltransferase) (mouse Probe ID 94431_at) (chip A, 1st): 0.385 | Fold Change, small inducible cytokine B subfamily (Cys-X-Cys), member 10 (mouse Probe ID 93858_at) (chip A, 1st): 1.3 | Fold Change, thioredoxin reductase 1 (mouse Probe ID 99985_at) (chip A, 1st): 1.2 | Fold Change, thioredoxin reductase 1 (mouse Probe ID 161043_r_at) (chip A, 1st): 1.4 | Fold Change, thrombospondin 1 (mouse Probe ID 160469_at) (chip A, 1st): 1.1 | Fold Change, transglutaminase 2, C polypeptide (mouse Probe ID 93352_at) (chip A, 1st): 1 | Fold Change, 2′-5′ oligoadenylate synthetase 1A (mouse Probe ID 102717_at) (chip A, 2nd): 1.7 | Fold Change, SAM domain and HD domain, 1 (mouse Probe ID 103080_at) (chip A, 2nd): 1.3 | Fold Change, cadherin 6 (mouse Probe ID 101730_at) (chip A, 2nd): 1.1 | Fold Change, cyclin D3 (mouse Probe ID 160545_at) (chip A, 2nd): 1.1 | Fold Change, fructose bisphosphatase 1 (mouse Probe ID 96918_at) (chip A, 2nd): 2.3 | Fold Change, growth arrest and DNA-damage-inducible 45 gamma (mouse Probe ID 101979_at) (chip A, 2nd): 5.4 | Fold Change, heparan sulfate (glucosamine) 3-)-sulfotransferase 1 (mouse Probe ID 102410_at) (chip A, 2nd): 0.4 | Fold Change, hydroxysteroid (17-beta) dehydrogenase 2 (mouse Probe ID 101891_at) (chip A, 2nd): 0.667 | Fold Change, intercellular adhesion molecule (mouse Probe ID 96752_at) (chip A, 2nd): 1.2 | Fold Change, intercellular adhesion molecule (mouse Probe ID 1011414_at) (chip A, 2nd): 0.357 | Fold Change, interferon-induced protein with tetratricopeptide repeats 1 (mouse Probe ID 100981_at) (chip A, 2nd): 1.9 | Fold Change, interferon-stimulated protein (15 kDa) (mouse Probe ID 98822_at) (chip A, 2nd): 4.2 | Fold Change, interleukin 13 receptor, alpha 2 (mouse Probe ID 95344_at) (chip A, 2nd): 1.5 | Fold Change, nitric oxide synthase 2, inducible, macrophage (mouse Probe ID 104420_at) (chip A, 2nd): 1.1 | Fold Change, proteosome (prosome, macropain) subunit, beta type 9 (mouse Probe ID 93085_at) (chip A, 2nd): 1.6 | Fold Change, sialyltransferase 1 (beta-galactoside alpha-2,6-sialyltransferase) (mouse Probe ID 94431_at) (chip A, 2nd): 1.3 | Fold Change, small inducible cytokine B subfamily (Cys-X-Cys), member 10 (mouse Probe ID 93858_at) (chip A, 2nd): 1.7 | Fold Change, thioredoxin reductase 1 (mouse Probe ID 161043_r_at) (chip A, 2nd): 1.8 | Fold Change, thioredoxin reductase 1 (mouse Probe ID 161284_r_at) (chip A, 2nd): 1.3 | Fold Change, thrombospondin 1 (mouse Probe ID 160469_at) (chip A, 2nd): 1.7 | Fold Change, transforming growth factor, beta 2 (mouse Probe ID 93300_at) (chip A, 2nd): 0.833 | Fold Change, transglutaminase 2, C polypeptide (mouse Probe ID 93352_at) (chip A, 2nd): 1.3 | Fold Change, 2′-5′ oligoadenylate synthetase 1A (mouse Probe ID 102717_at) (chip A, 3rd): 2.2 | Fold Change, DnaJ (Hsp40) homolog, subfamily A, member 1 (mouse Probe ID 97261_at) (chip A, 3rd): 0.833 | Fold Change, cyclin D3 (mouse Probe ID 160545_at) (chip A, 3rd): 0.833 | Fold Change, fructose bisphosphatase 1 (mouse Probe ID 96918_at) (chip A, 3rd): 1.7 | Fold Change, growth arrest and DNA-damage-inducible 45 gamma (mouse Probe ID 101979_at) (chip A, 3rd): 1.9 | Fold Change, heparan sulfate (glucosamine) 3-)-sulfotransferase 1 (mouse Probe ID 102410_at) (chip A, 3rd): 1 | Fold Change, intercellular adhesion molecule (mouse Probe ID 1011414_at) (chip A, 3rd): 1 | Fold Change, interferon-induced protein with tetratricopeptide repeats 1 (mouse Probe ID 100981_at) (chip A, 3rd): 1.6 | Fold Change, interferon-stimulated protein (15 kDa) (mouse Probe ID 98822_at) (chip A, 3rd): 2.2 | Fold Change, interleukin 13 receptor, alpha 2 (mouse Probe ID 95344_at) (chip A, 3rd): 1.2 | Fold Change, osteoblast specific factor 2 (fasciclin I-like) (mouse Probe ID 92593_at) (chip A, 3rd): 1 | Fold Change, proteosome (prosome, macropain) subunit, beta type 9 (mouse Probe ID 93085_at) (chip A, 3rd): 1.1 | Fold Change, sialyltransferase 1 (beta-galactoside alpha-2,6-sialyltransferase) (mouse Probe ID 94431_at) (chip A, 3rd): 1.6 | Fold Change, small inducible cytokine B subfamily (Cys-X-Cys), member 10 (mouse Probe ID 93858_at) (chip A, 3rd): 2 | Fold Change, thioredoxin reductase 1 (mouse Probe ID 99985_at) (chip A, 3rd): 1 | Fold Change, thioredoxin reductase 1 (mouse Probe ID 161043_r_at) (chip A, 3rd): 0.588 | Fold Change, thrombospondin 1 (mouse Probe ID 160469_at) (chip A, 3rd): 1.5 | Fold Change, transforming growth factor, beta 2 (mouse Probe ID 93300_at) (chip A, 3rd): 0.5 | Fold Change, transglutaminase 2, C polypeptide (mouse Probe ID 93352_at) (chip A, 3rd): 0.833 | Fold Change, RIKEN cDNA 2610017M01 gene (mouse Probe ID 105606_at) (chip B, 1st): 1.5 | Fold Change, RIKEN cDNA 2610017M01 gene (mouse Probe ID 163053_at) (chip B, 1st): 1

Source: patent US20050208496A1, “Methods of testing for bronchial asthma or chronic obstructive pulmonary disease” (Genox Research, Inc., priority 2002, published 2005)
